Data: patent US20100258138A1, “RADIOLABELED 1-ACETATE PET IMAGING FOR RA[…] HEAD AND NECK CANCER” (priority 2006, published 2010)
“And” between values parts separate entries of the source, which are not always exact repeats. Identical values can stand only once.

How the values were obtained:
[1] = tested on: primary tumors of head and neck squamous cell carcinoma; conditions: ten patients
Method: (§1) Ten consecutive patients (median age 56, range 18-77 years), where of eight males and two females with histologically confirmed squamous cell carcinoma of the head and neck, were included in the study. None of the patients suffered from diabetes. […] Conventional staging of the tumors was performed by CT (n=9), MRI (n=1), histopathology and clinical examination. Histological confirmation was obtained by guided biopsies in all the primary tumors and most metastatic sites. […] All patients participating in the study provided informed consent. The study was accepted by the ethical committee of the participating hospital.
(§2) In all patients, both FDG-PET and ACE-PET were performed before the radiotherapy treatment. ACE and FDG-PET scans were performed on the same or consecutive day, except for one patient where the two types of PET scanning were done five days apart. PET studies were carried out with a dedicated PET scanner (Siemens ECAT HR^+, Knoxville, Tenn., USA) or with a PET/CT (GE Discovery S T, Milwaukee, Wis., USA). All patients were normoglycemic and were fasted at least 6 hours before tracer injection.
(§3) Whole-body scanning was performed one hour after intravenous injection of 5 MBq/kg body weight FDG. Six patients were examined by PET/CT and four patients were studied by PET alone. The patients were instructed to remain recumbent and avoid voicing and other uses of neck muscles during the uptake period.
(§4) PET images were co-registered with the CT or MRI images in all patients by a normalized mutual information procedure supported by manual correction using Hermes Multimodality™ software (Nuclear Diagnostics, Stockholm, Sweden). FDG-PET and ACE-PET images were analyzed both qualitatively and quantitatively, using Hermes Volume Display™ version V2β. In qualitative analysis, PET images were interpreted visually by two nuclear medicine physicians and any disagreement was resolved by consensus. The tumor uptake of FDG and ACE was graded into negligible, mild, moderate and intensive compared to the contra-lateral or surrounding tissues. An abnormal uptake equal to or exceeding mild was considered positive. In quantitative analysis, the mean standardized uptake value (SUV) and tumor volumes delineated by ACE and FDG-PET were evaluated. SUV was calculated as mean radioactivity concentration in the volumes (Bq/cc) divided by injected dose (Bq) per kilogram body weight. […]
(§5) Each tumor volume in FDG-PET and ACE-PET was delineated automatically by tracing an isoactivity pixel value set to 50% threshold of the maximum radioactivity corrected for background. The background was measured from a separately drawn region of interest (ROI) adjacent but at safe distance from the tumor. The isoactivity pixel value of each volume was calculated as: […]

[2] = tested on: lymph node metastases of head and neck squamous cell carcinoma; conditions: 21 metastatic lesions
Method: as §1, §2, §3, §4, §5

[3] = tested on: primary tumors of head and neck squamous cell carcinoma; experiment: ACE-PET imaging of primary tumors; type: in vivo, human
Method: (§6) None of the patients suffered from diabetes. […] All patients participating in the study provided informed consent.
(§7) Six patients were studied with dedicated PET and four patients were investigated with PET/CT. A 32 minutes dynamic emission scan was performed immediately after intravenous injection of 10 MBq/kg body weight ACE. The scan time was 12×5s, 6×10s, 4×30s, 4×60s, 2×120s and 4×300s. Frame 30 (17-22 minutes after injection) generally provided the best image quality with highest tumor to background ratio and was therefore chosen for subsequent data analysis.
(§8) Isoactivity pixel value=(MPVtumor+APVbackground)×50%

[4] = tested on: lymph node metastases of head and neck squamous cell carcinoma; experiment: ACE-PET imaging of metastases; type: in vivo, human
Method: as §6, §7, §8

salivary glands = experiment: ACE-PET physiological uptake in normal tissue; set-up: species or system human; conditions: in vivo
Method: as §7

| SMILES | FDG-PET SUV, Mean ± SD [1] | range of FDG SUV [1] | FDG SUV (mean±SD) [2] | range of FDG SUV [2] | ACE-PET SUV ([3]; primary tumor, individual patient (one line per patient), 10 MBq/kg i.v., frame 17-22 min after injection) | ACE-PET Visual ([3]; primary tumor, individual patient, visual grading of uptake vs contra-lateral or surrounding tissue) | ACE-PET SUV, Mean ± SD ([3]; primary tumors, ten patients) | range of ACE SUV ([3]; primary tumors, ten patients) | ACE SUV (mean±SD) ([4]; 21 metastatic lesions) | range of ACE SUV ([4]; 21 metastatic lesions) | ACE-PET SUV ([4]; individual metastasis (one line per lesion), 10 MBq/kg i.v., frame 17-22 min) | ACE-PET Visual ([4]; individual metastasis, visual grading of uptake) | physiological uptake of ACE in salivary glands (salivary glands) |
| --- | --- | --- | --- | --- | --- | --- | --- | --- | --- | --- | --- | --- | --- |
| OC[C@H]1OC(O)[C@H]([18F])[C@@H](O)[C@@H]1O (stereo partly drawn) [FDG, ^18F-fluoro-2-deoxy-D-glucose] | 9.6±7.0 | 1.9-24.5 | 4.47±3.3 | 0.9-10.0 |  |  |  |  |  |  |  |  |  |
| C[11C](=O)O [ACE, ^11C-acetate] |  |  |  |  | 3.7 and 3.8 and 2.7 and 5.7 and 10.6 and 4.9 and 3.9 and 9.2 and 2.5 and 6.0 | + (2×) and +++ (4×) and ++ (4×) | 5.3±2.7 | 2.5-10.6 | 4.0±1.3 | 2.4-6.2 | 3.5 and 5.9 and 4.7 and 5.1 and 3.1 and 2.9 and 4.5 and 3.9 and 4.6 and 5.8 and 3.0 and 2.8 and 2.6 and 3.7 and 6.2 and 2.4 and 2.7 | +++ (6×) and ++ (9×) and − and + (5×) | normally high physiological uptake |
